Test results published in US20110071052A1, “MEASUREMENT OF PROTEIN KINASE ACTIVITY IN CEREBROSPINAL FLUID FOR DIAGNOSIS OF NEUROLOGICAL AND PSYCHIATRIC DISORDERS” (priority 2008, published 2011).

Key:
[1] = test system: IL-1β induced IL-6 secretion by U373 astrocytoma cells; assay: IL-1β induced IL-6 secretion by U373 astrocytoma cells (ELISA); type: cell-based; details: IL-1β 10 U/ml, 6 hours, inhibitor 1250, 2500 or 5000 nM
[2] = test system: IL-1β induced IL-6 secretion by human primary astrocytes; assay: IL-1β induced IL-6 secretion by human primary astrocytes (ELISA); type: cell-based; details: IL-1β 10 U/ml, 6 hours, inhibitor 1250, 2500 or 5000 nM
Description: IL-1β has been implicated in both the initiation and propagation of neuroinflammatory changes seen in Alzheimer's disease patients. One of the main mechanisms of IL-1β is the induction of interleukin 6 (IL-6) secretion, which propagates the neuroinflammatory response in Alzheimer's disease patients. Using primary human adult astrocytes this inflammatory response as well as modulators (i.e. potential drugs for therapy) can be studied in vitro. […] In the presence of IL-1β (10 U/ml) these cells secrete IL-6 in the culture supernatant, which can be measured by ELISA. […] Cells were incubated with or without IL-1β (10 U/ml) for 6 hours in the presence of different concentration of IRAK1/4 inhibitor I (1250, 2500, or 5000 nM). IL-6 levels (pg/ml) in the culture supernatants were determined by ELISA. Shown are mean levels +/− S.D. of three replicate stimulations.

Q: Which “IL-6 secretion in culture supernatant” value [1] does the source give for `O=C(Nc1nc2ccccc2n1CCN1CCOCC1)c1cccc([N+](=O)[O-])c1` [IRAK1/4 inhibitor I] here?
A: dose-dependently inhibits IL-6 secretion

Q: What about the “IL-6 secretion in culture supernatant” value ([1]; listed as IRAK1/4 inhibitor) of the same molecule?
A: reduced

Q: What about the “IL-6 secretion in culture supernatant” value [2] of the same molecule?
A: dose-dependently inhibits IL-6 secretion

Q: What about the “IL-6 secretion in culture supernatant” value ([2]; listed as IRAK1/4 inhibitor) of the same molecule?
A: reduced
